The record followed here is ChEMBL document CHEMBL5029160, “An Activity-Based Probe for Cathepsin K Imaging with Excellent Potency and Selectivity” (J Med Chem, 2021).

Data set [1] concerns the target Cathepsin B (Homo sapiens) (UniProt P07858). Put plainly: Inhibition of human cathepsin B assessed as residual activity using Z-Arg-Arg-pNA as substrate incubated for 60 mins by fluorometric assay. More on the design: concentration or dose not given beside the values.
Data set [2] addresses Procathepsin L (Homo sapiens) (UniProt P07711). Description: Inhibition of human cathepsin L assessed as residual activity using Z-Phe-Arg-pNA as substrate incubated for 60 mins by fluorometric assay. Set-up: concentration or dose not given beside the values.
Data set [3] concerns the target Cathepsin S (Homo sapiens) (UniProt P25774). Put plainly: Inhibition of human cathepsin S assessed as ratio of Kinact/Ki using Z-Phe-Val-Arg-pNA as substrate incubated for 60 mins by fluorometric assay.
The target in data set [4] is T1, Cathepsin K (Homo sapiens) (UniProt P43235).
T1 sequence (whole entry): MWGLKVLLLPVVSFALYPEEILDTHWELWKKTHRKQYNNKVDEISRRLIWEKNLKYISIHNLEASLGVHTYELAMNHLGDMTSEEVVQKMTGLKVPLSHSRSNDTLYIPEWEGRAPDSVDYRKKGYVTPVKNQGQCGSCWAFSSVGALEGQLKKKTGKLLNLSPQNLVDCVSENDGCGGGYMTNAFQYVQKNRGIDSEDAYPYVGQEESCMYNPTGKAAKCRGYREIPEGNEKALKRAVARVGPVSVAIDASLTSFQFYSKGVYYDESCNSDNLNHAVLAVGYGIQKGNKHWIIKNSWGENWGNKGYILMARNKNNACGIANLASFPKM
Description: Inhibition of human cathepsin K assessed as ratio of Kinact/Ki using Z-Phe-Arg-pNA as substrate incubated for 60 mins by fluorometric assay.

In data set [5] the target is T1, Cathepsin K (Homo sapiens). Description: Binding affinity to Cathepsin K in human U2OS cells at 1 uM measured after 4 hrs by SDS-PAGE. Format: cell-based.
Data set [6] deals with T1, Cathepsin K (Homo sapiens). Put plainly: Binding affinity to Cathepsin K in human U2OS cells at 1 uM pretreated with E-64d for 1 hr followed by compound addition and measured after 24 hrs by SDS-PAGE. Format: cell-based.
In data set [7] the target is T1, Cathepsin K (Homo sapiens). Description: Inhibition of recombinant human Cathepsin K at 5 uM using Z-Phe-Arg-pNA as substrate incubated for 1 hr in presence of HEK293 cell lysate by SDS-PAGE. Format: subcellular.
Data set [8] addresses T1, Cathepsin K (Homo sapiens). Description: Binding affinity to Cathepsin K in human U2OS cells at 1 uM measured after 24 hrs by SDS-PAGE. The format is cell-based.
Data set [9] concerns the target T1, Cathepsin K (Homo sapiens). Description: Binding affinity to recombinant human Cathepsin K at 5 uM pretreated with E64/K11777 pan-cathepsin inhibitor s for 15 mins followed by compound addition and measured after 1 hr by SDS-PAGE. Conditions: time 75.0 min.
Data set [10] has as its target T1, Cathepsin K (Homo sapiens). Description: Binding affinity to Cathepsin K in human U2OS cells at 1 uM measured after 16 hrs by SDS-PAGE. The format is cell-based.
Data set [11] can be described thus: Drug uptake in human U2OS cells […] at 1 uM after 16 hrs by LysoTracker staining based fluorescence microscopy. Format: ADME, subcellular.
The target of data set [12] is Cathepsin B (Homo sapiens) (UniProt P07858). Description: Inhibition of human cathepsin B assessed as ratio of Kinact/Ki using Z-Arg-Arg-pNA as substrate incubated for 60 mins by fluorometric assay.
Data set [13] concerns the target Procathepsin L (Homo sapiens) (UniProt P07711). Description: Inhibition of human cathepsin L assessed as ratio of Kinact/Ki using Z-Phe-Arg-pNA as substrate incubated for 60 mins by fluorometric assay.
The target in data set [14] is Cathepsin S (Homo sapiens) (UniProt P25774). Put plainly: Inhibition of human cathepsin S assessed as residual activity using Z-Phe-Val-Arg-pNA as substrate incubated for 60 mins by fluorometric assay.

Calls of active or inactive are those of the source. The calls are words filed in the database; no cut-off is given here.

Sequence of Procathepsin L (Homo sapiens) (P07711 114-333 limits assumed): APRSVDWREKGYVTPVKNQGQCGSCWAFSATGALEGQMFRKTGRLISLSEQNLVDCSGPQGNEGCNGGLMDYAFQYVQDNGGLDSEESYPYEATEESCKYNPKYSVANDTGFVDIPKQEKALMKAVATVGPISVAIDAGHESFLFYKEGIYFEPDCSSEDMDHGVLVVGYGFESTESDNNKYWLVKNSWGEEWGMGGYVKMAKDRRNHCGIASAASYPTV
Sequence of Cathepsin S (Homo sapiens) (P25774 115-331 limits assumed): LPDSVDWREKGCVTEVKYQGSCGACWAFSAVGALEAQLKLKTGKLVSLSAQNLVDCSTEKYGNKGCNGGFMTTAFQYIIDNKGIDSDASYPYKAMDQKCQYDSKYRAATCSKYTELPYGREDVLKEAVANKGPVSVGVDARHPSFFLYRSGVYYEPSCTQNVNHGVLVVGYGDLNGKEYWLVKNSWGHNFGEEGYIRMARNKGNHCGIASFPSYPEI

Consider `CC(C)C[C@H](NC(=O)OC(C)(C)C)C(=O)NC/C=C/C(=O)N(Cc1ccccc1)Cc1ccccc1`, for which the Activity in [1] stood at 91%; in data set [2], 83%. Further, the Ratio in [3] turned out to be 291 M⁻¹ s⁻¹; in data set [4], 10600 M⁻¹ s⁻¹.

`CCCC[C@H](NC(=O)CCCC[N+]1=C(/C=C/C=C/C=C2/N(C)c3ccccc3C2(C)C)C(C)(C)c2ccccc21)C(=O)N[C@@H](CC(C)C)C(=O)NC/C=C/C(=O)N(Cc1ccccc1)Cc1ccccc1`: the Activity in data set [1] is 96%; in [2], 91%. Moreover, the Ratio in [3] stood at 556 M⁻¹ s⁻¹; in [4] it was 17900 M⁻¹ s⁻¹.

For `CC(C)C[C@H](NC(=O)c1ccc(-c2cc3cc4c5c(c3oc2=O)CCCN5CCC4)cc1)C(=O)NC/C=C/C(=O)N(Cc1ccccc1)Cc1ccccc1`, the results for the Ratio in [3] and in data set [4] were 1510 M⁻¹ s⁻¹ and 84200 M⁻¹ s⁻¹, respectively.

Regarding `CC(C)C[C@H](NC(=O)CCCC[N+]1=C(/C=C/C=C/C=C2/N(C)c3ccccc3C2(C)C)C(C)(C)c2ccccc21)C(=O)NC/C=C/C(=O)N(Cc1ccccc1)Cc1ccccc1.[Cl-]`, the values for the Activity in data set [1] and in data set [2] were 96% and 89%, respectively. Besides, the result in data set [5], in data set [8] and in data set [10] was Active. Also, the result in [6] and in data set [9] was inactive. Also, the Ratio in [3] came to 505 M⁻¹ s⁻¹; in [4], 35300 M⁻¹ s⁻¹. For the same compound, the inhibition entry in data set [7] was “Active”. The Drug uptake entry in [11] is listed as “Active”.

Consider `CC(C)C[C@H](NC(=O)c1cc2cc3c4c(c2oc1=O)CCCN4CCC3)C(=O)NC/C=C/C(=O)N(Cc1ccccc1)Cc1ccccc1`, for which the results for the Activity in data set [1], in data set [2] and in data set [14] were 96%, 89% and 80%, respectively. In addition, the Ratio in data set [12] is 365 M⁻¹ s⁻¹; in data set [13], 2820 M⁻¹ s⁻¹; in data set [4], 9550 M⁻¹ s⁻¹.

Take `CCCC[C@H](NC(=O)OC(C)(C)C)C(=O)N[C@@H](CC(C)C)C(=O)NC/C=C/C(=O)N(Cc1ccccc1)Cc1ccccc1`: the Activity was 91% in [1] and 76% in data set [2]. The Ratio worked out at 485 M⁻¹ s⁻¹ in [3] and 6440 M⁻¹ s⁻¹ in [4].
